Source: patent US10065965B2, “Imidazo[1,2-B][1,2,4]triazine derivatives as antiparasitic agents” (GlaxoSmithKline Intellectual Property Development Limited, priority 2015, dated 2018)
In brackets after ≈: the same amount, converted by molar mass.

Legend:
Trypanosoma cruzi [1] = assay: Assay 6 Trypanosoma cruzi intracellular assay (infected H9C2 cells); format: cell-based; conditions: H9c2, in Rattus norvegicus, 72 h, infected H9C2 rat cardiomyocytes, read-out: pEC50 value against Trypanosoma cruzi (converted)
Procedure: Compounds were dispensed into black 384-well assay plates (Greiner) by acoustic dispensing (LabCyte ECHO). For potency determinations, eleven-point, one in three dilution curves were generated, with a top concentration of 50 μM. H9C2 rat cardiomyocytes cells were dispensed in T225 tissue culture flasks and after 4 hours they were infected during 18 hours with T. cruzi trypomastigotes in the same T225 tissue culture flasks at a multiplicity of infection of 1. Next, any remaining free trypomastigotes were washed away with PBS and the infected H9C2 cells were harvested by trypsinisation. The infected H9C2 cells were then plated into 384-well plates containing the compounds to be tested, at 2500 cells per well in DMEM media with 2% FBS, 1% Penicillin/Streptomocin, 2 mM L-Glutamine, 1 mM Na Pyruvate and 25 mM HEPES. After 72 h incubation at 37° C. in presence of 5% CO2, the plates were fixed and stained with 4% formaldehyde and 2 μM Draq5 for 3 hours at room temperature. The plates were imaged on a Perkin Elmer Opera high-content imaging system using a 20× air objective. Images were analysed using the Acapella building blocks system (Perkin Elmer). The image analysis algorithm first identified the H9C2 nuclei followed by demarcation of the cytoplasm and identification of intracellular amastigotes. This algorithm reported mean number of parasites per H9C2 cell, the percentage of infected H9C2 cells and the total number of H9C2 cells.

[2] = Assay 4 solubility assay, ChemiLuminescent Nitrogen Detection (CLND); format: physicochemical; conditions: phosphate buffered saline, pH 7.4, aqueous buffer, kinetic from dmso stock, pH 7.4 PBS, from 10 mM DMSO stock, 1 h at room temperature
Procedure: A 10 mM DMSO stock solution of the compound was prepared. Solvents and Buffers Organic solvents of HPLC grade were used. Ultra pure water (Milli-Q grade) was used. Buffers were prepared with ultra pure water and filtered using 0.45μ cameo filters. Aqueous Buffer Solution: Phosphate Buffer Saline (PBS) @ pH 7.4 was prepared from Sigma dry powder packs, P-3813. Each one was diluted to 1 liter with deionised water. The pH was checked before the solution was used II. Procedures. • a) DMSO concentration was measured. DMSO blanks and ondansetron and caffeine standards were added to the plate (column 12, A, B, C, & D for the blanks and E, F, G, & H for the standards). Plates were covered with foil. When the UV and CLND detectors baselines appeared to be stable, the CLND was zeroed. • b) Once DMSO concentration measurements were complete, a filtration plate was prepared from each parent plate by diluting 5 μl of the 10 mM DMSO stock solution to […] with pH7.4 PBS. • c) After the plates were prepared, they were covered with a plate lid and left to incubate for 1 h at room temperature. • d) Sample was filtered using MILLIPORE MultiScreen Solubility (MSSLBPC10) Filtration Plates, to NUNC V well plates. The filter plate was removed and the NUNC plate was sealed with a power seal plate seal. • e) HPLC/CLND instruments were set up and left to equilibrate. Mobile phases (MeOH:H2O 1:1, flow rate: 0.2 ml/min, sensitivity z10, Gain High). The samples were run. • f) The assay curve fit was done by linear regression and solubility values were reported in μM.

Trypanosoma cruzi [3] = assay: Assay 2 Trypanosoma cruzi intracellular assay (infected Vero cells); format: cell-based; conditions: 72 h, read-out: pEC50 value against Trypanosoma cruzi (converted)
Procedure: Compounds were dispensed into black 384-well assay plates (Corning) by acoustic dispensing (LabCyte ECHO). For potency determinations, ten-point one in three dilution curves were generated, with a top concentration of 50 μM. Vero cells were infected overnight with T. cruzi trypomastigotes in T225 tissue culture flasks at a multiplicity of infection of 5. Next, any remaining free trypomastigotes were washed away with serum free MEM media and the infected Vero cells were harvested by trypsinisation. The infected Vero cells were then plated into 384-well plates containing the compounds to be tested, at 4000 cells per well in MEM media with 1% FCS. After 72 h incubation at 37° C. in presence of 5% CO2, the plates were fixed with 4% formaldehyde for 20 minutes at room temperature and stained with 5 μg/ml Hoechst 33342. The plates were imaged on a Perkin Elmer Operetta high-content imaging system using a 20× objective. Images were analysed using the Columbus system (Perkin Elmer). The image analysis algorithm first identified the Vero nuclei followed by demarcation of the cytoplasm and identification of intracellular amastigotes. This algorithm reported mean number of parasites per Vero cell and total number of Vero cells.

Leishmania donovani = assay: Assay 1 intramacrophage Leishmania donovani assay (potency readout); format: cell-based; conditions: amastigotes in PMA-treated THP-1 macrophages, 96 h, average number of amastigotes per cell, minimum threshold 4.3, read-out: pEC50 value against Leishmania donovani (converted)
Procedure: (§1) The intramacrophage Leishmania assay was performed using a modified version of the method described in De Rycker et al. (Antimicrob Agents Chemother. 2013 July; 57(7):2913-22. Comparison of a high-throughput high-content intracellular Leishmania donovani assay with an axenic amastigote assay. De Rycker M, Hallyburton I, Thomas J, Campbell L, Wyllie S, Joshi D, Cameron S, Gilbert I H, Wyatt P G, Frearson J A, Fairlamb A H, Gray D W.). Procedure: 350 nl of compound was pre-dispensed into 384 well sterile intermediary plates. For single point screening, amphotericin B was added to all wells of column 24 as a positive control (final concentration 2 μM) and DMSO to column 23. For potency determinations, ten-point, one in three dilution curves were created with the highest concentration being 50 μM and on each plate a control curve of amphotericin B was included. Controls were as follows: columns 11 and 12: DMSO, columns 23 and 24: amphotericin B (final concentration 2 μM). To the intermediary plates, 35 μl of THP-1 media was added and plates were shaken for >5 min to ensure complete mixing. THP-1 cells (8,000 per well, 50 μl) were plated into black clear-bottom 384 well plates (Corning) in presence of 20 nM PMA. After 20 min at RT, the plates were incubated at 37° C. under 5% CO2 in a humidified incubator for 75 h. The cells were then washed with […] sterile phosphate buffered saline (PBS) supplemented with 1 mM CaCl2, 0.5 mM MgCl2, 0.1% (w/v) bovine serum albumin (PBS-A) and amastigotes were added to all wells at a multiplicity of infection of 5 (40,000 amastigotes per well). After 40 min at RT, plates were returned to the incubator. Amastigotes were incubated in the presence of THP-1 macrophages for 16 h. Any remaining extracellular amastigotes were subsequently removed with an overflow wash of 1 mL PBS-A per well (wash buffer is being aspirated from the top of the well as it is being dispensed) followed by addition of 25 μl of the compound pre-dilutions using a Fluidx Ipette-pro pipetting station. The final dilution of each compound was 200-fold. Plates were incubated for 96 h and then washed (250 μl PBS-A) and fixed (4% (v/v) formaldehyde-PBS, 30 min, RT). After fixation, the wells were washed with 250 μl PBS, stained (10 μg/mL DAPI, 0.4 μg mL-1 HCS Cellmask Deep Red in PBS+0.1% (v/v) Triton X-100, 30 min, RT) and washed with 250 μl PBS. Finally, PBS+0.05% (v/v) thimerosal was added to the wells, the plates were sealed and imaged on a high-content microscope (GE IN Cell 2000) using a 10× objective. Image analysis was carried out with GE IN Cell Analyzer 1000 Workstation using the “Multi Target Analysis” module. Settings for segmentation were as follows: nuclei: minimum area: 142.384 μm2, sensitivity: 81, method: top-hat; cells: characteristic area: 2500 μm2, sensitivity: 60, method: multiscale top-hat; organelles (amastigotes): granule size 1-3, 3 scales, sensitivity: 90, detection in entire cell. For each well, i) THP-1 cell count (cytotoxicity readout) and ii) average number of amastigotes per cell (potency readout) were calculated, both in terms of pEC50 values.

[4] = Assay 1 intramacrophage Leishmania donovani assay, THP-1 cell count (cytotoxicity readout); format: cell-based; conditions: human, minimum threshold 4.3, read-out: cytotoxicity against THP-1 cells, pEC50 value (converted)
Procedure: as §1

Compound: CC1CN(c2cnc3nc(-c4cc(NC(=O)N5CCCC5)ccc4F)cn3n2)CCO1 (racemic) [Example 5, (+,−)-N-(4-fluoro-3-(2-(2-methylmorpholino)imidazo[1,2-b][1,2,4]triazin-6-yl)phenyl)pyrrolidine-1-carboxamide]
- EC50 (Trypanosoma cruzi [1]): 5.01 to 631 nM
- solubility at 1 h [2]: 10 to 83 µM (≈ 4.25 to 35.3 µg/mL)
- EC50 (Trypanosoma cruzi [3]): 20 to 251 nM

Compound: O=C(Nc1ccc(F)c(-c2cn3nccnc3n2)c1)N1CCCC1 [Example 8, N-(4-fluoro-3-(imidazo[1,2-b][1,2,4]triazin-6-yl)phenyl)pyrrolidine-1-carboxamide]
- EC50 (Trypanosoma cruzi [3]): 20 to 251 nM

Compound: O=C(Nc1ccc(F)c(-c2cn3nc(N4CCCCC4)cnc3n2)c1)N1CCCC1 [Example 4, N-(4-fluoro-3-(2-(piperidin-1-yl)imidazo[1,2-b][1,2,4]triazin-6-yl)phenyl)pyrrolidine-1-carboxamide]
- EC50 (Trypanosoma cruzi [1]): 5.01 to 631 nM
- solubility at 1 h [2]: 10 to 83 µM (≈ 4.09 to 34 µg/mL)
- EC50 (Trypanosoma cruzi [3]): 20 to 251 nM

Compound: CCOC(=O)Nc1ccc(F)c(-c2cn3nc(N4CCOCC4)cnc3n2)c1 [Example 52, ethyl (4-fluoro-3-(2-morpholinoimidazo [1,2-b][1,2,4]triazin-6-yl)phenyl)carbamate]
- EC50 (Trypanosoma cruzi [1]): 5.01 to 631 nM
- EC50 (Leishmania donovani): > 50100 nM

Compound: O=C(Nc1ccc(F)c(-c2cn3nc(N4CCCC4)cnc3n2)c1)N1CCCC1 [Example 3, N-(4-fluoro-3-(2-(pyrrolidin-1-yl)imidazo[1,2-b][1,2,4]triazin-6-yl)phenyl)pyrrolidine-1-carboxamide]
- EC50 (Trypanosoma cruzi [1]): 5.01 to 631 nM
- solubility at 1 h [2]: 10 to 83 µM (≈ 3.95 to 32.8 µg/mL)
- EC50 (Trypanosoma cruzi [3]): 20 to 251 nM

Compound: O=C(Nc1ccc(F)c(-c2cn3nc(-c4ccc(O)cc4)cnc3n2)c1)N1CCCC1 [Example 51, N-(4-fluoro-3-(2-(4-hydroxyphenyl)imidazo [1,2-b][1,2,4]triazin-6-yl)phenyl)pyrrolidine-1-carboxamide]
- EC50 at 96 h [4]: 3980 to 15800 nM
- EC50 (Trypanosoma cruzi [1]): 5.01 to 631 nM

Compound: CN1CCN(Cc2ccc(-c3cnc4nc(-c5cc(NC(=O)N6CCCC6)ccc5F)cn4n3)cc2)CC1 [Example 59, N-(4-fluoro-3-(2-(4-((4-methylpiperazin-1-yl)methyl)phenyl)imidazo [1,2-b][1,2,4]triazin-6-yl)phenyl)pyrrolidine-1-carboxamide]
- EC50 at 96 h [4]: 3980 to 15800 nM

Compound: O=C(Nc1ccc(F)c(-c2cn3nc(-c4ccccc4)cnc3n2)c1)N1CCCC1 [Example 2, N-(4-fluoro-3-(2-phenylimidazo[1,2-b][1,2,4]triazin-6-yl)phenyl)pyrrolidine-1-carboxamide]
- EC50 (Trypanosoma cruzi [1]): 5.01 to 631 nM
- solubility at 1 h [2]: 10 to 83 µM (≈ 4.02 to 33.4 µg/mL)
- EC50 (Trypanosoma cruzi [3]): 20 to 251 nM

Compound: O=C(Nc1ccc(F)c(-c2cn3nc(-c4cccc(CN5CCOCC5)c4)cnc3n2)c1)N1CCCC1 [Example 19, N-(4-fluoro-3-(2-(3-(morpholinomethyl)phenyl)imidazo[1,2-b] [1,2,4]triazin-6-yl)phenyl)pyrrolidine-1-carboxamide]
- EC50 at 96 h [4]: 3980 to 15800 nM
- EC50 (Trypanosoma cruzi [1]): 5.01 to 631 nM
- solubility at 1 h [2]: 1 to 6 µM (≈ 0.502 to 3.01 µg/mL)

Compound: O=C(Nc1ccc(F)c(-c2cn3nc(-c4ccc(CN5CCOCC5)cc4)cnc3n2)c1)N1CCCC1 [Example 18, N-(4-fluoro-3-(2-(4-(morpholinomethyl)phenyl)imidazo[1,2-b] [1,2,4]triazin-6-yl)phenyl)pyrrolidine-1-carboxamide]
- EC50 at 96 h [4]: 3980 to 15800 nM
- EC50 (Trypanosoma cruzi [1]): 5.01 to 631 nM
- solubility at 1 h [2]: 1 to 6 µM (≈ 0.502 to 3.01 µg/mL)

Compound: COc1ccc(CNc2cnc3nc(-c4cc(NC(=O)N5CCCC5)ccc4F)cn3n2)cc1 [Example 50, N-(4-fluoro-3-(2-((4-methoxybenzyl)amino)imidazo[1,2-b][1,2,4]triazin-6-yl)phenyl) pyrrolidine-1-carboxamide]
- EC50 at 96 h [4]: 3980 to 15800 nM
- EC50 (Trypanosoma cruzi [1]): 5.01 to 631 nM

Compound: O=C(Nc1ccc(F)c(-c2cn3nc(-c4ccc(OCCN5CCOCC5)cc4)cnc3n2)c1)N1CCCC1 [Example 17, N-(4-fluoro-3-(2-(4-(2-morpholinoethoxy)phenyl)imidazo[1,2-b][1,2,4]triazin-6-yl)phenyl) pyrrolidine-1-carboxamide]
- EC50 (Trypanosoma cruzi [1]): 5.01 to 631 nM
- solubility at 1 h [2]: 1 to 6 µM (≈ 0.532 to 3.19 µg/mL)

Compound: CN1CCN(c2cnc3nc(-c4cc(NC(=O)N5CCCC5)ccc4F)cn3n2)CC1 [Example 57, N-(4-fluoro-3-(2-(4-methylpiperazin-1-yl)imidazo[1,2-b][1,2,4]triazin-6-yl)phenyl) pyrrolidine-1-carboxamide]
- EC50 (Trypanosoma cruzi [1]): 5.01 to 631 nM
- solubility at 1 h [2]: 100 to 416 µM (≈ 42.4 to 177 µg/mL)

Compound: Cc1c(-c2cc(NC(=O)N3CCCC3)ccc2F)nc2ncc(N3CCOCC3)nn12 [Example 27, N-(4-fluoro-3-(7-methyl-2-morpholinoimidazo [1,2-b][1,2,4]triazin-6-yl)phenyl)pyrrolidine-1-carboxamide]
- EC50 (Trypanosoma cruzi [1]): 5.01 to 631 nM
- solubility at 1 h [2]: 100 to 416 µM (≈ 42.5 to 177 µg/mL)

Compound: CC(C)OC(=O)Nc1cnc2nc(-c3cc(NC(=O)N4CCCC4)ccc3F)cn2n1 [Example 54, isopropyl (6-(2-fluoro-5-(pyrrolidine-1-carboxamido)phenyl)imidazo[1,2-b][1,2,4]triazin-2-yl)carbamate]
- EC50 (Trypanosoma cruzi [1]): 5.01 to 631 nM
- solubility at 1 h [2]: 10 to 83 µM (≈ 4.27 to 35.5 µg/mL)
